Assays:
[1] = target: Beta-lactamase VIM-2 (Pseudomonas aeruginosa) (UniProt Q9K2N0); assay: Inhibition of beta-lactamase VIM-2 in Pseudomonas aeruginosa assessed as potentiation of meropenem-induced antibacterial activity by measuring meropenem MIC at 125 uM after 20 hrs by broth microdilution assay (meropenem alone = 32 to 64 mg/L)
[2] = target: Metallo-beta-lactamase type 2 (Klebsiella pneumoniae) (UniProt C7C422); assay: Inhibition of NDM1 in Pseudomonas aeruginosa assessed as potentiation of meropenem-induced antibacterial activity by measuring meropenem MIC at 125 uM after 20 hrs by broth microdilution assay (meropenem alone = 32 to 64 mg/L)
Sequence of Metallo-beta-lactamase type 2 (Klebsiella pneumoniae) (C7C422 whole entry): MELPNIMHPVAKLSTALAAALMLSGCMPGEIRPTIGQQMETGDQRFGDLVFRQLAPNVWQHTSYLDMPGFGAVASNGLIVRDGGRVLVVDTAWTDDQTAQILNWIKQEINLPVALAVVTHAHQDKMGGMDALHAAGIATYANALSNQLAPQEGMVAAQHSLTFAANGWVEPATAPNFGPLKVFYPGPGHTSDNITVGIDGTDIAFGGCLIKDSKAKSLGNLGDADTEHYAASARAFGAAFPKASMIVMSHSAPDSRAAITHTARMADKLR

[3] = test system: MDA-MB-231; assay: Cytotoxicity against human MDA-MB-231 cells after 72 hrs by MTT assay; assay type: cell-based; settings: MDA-MB-231, 72 h
[4] = Cytotoxicity against human MiaPaCa cells after 72 hrs by MTT assay; assay type: cell-based; settings: MIA PaCa-2, 72 h
[5] = test system: COLO357; assay: Cytotoxicity against human Colo-357 cells after 72 hrs by MTT assay; assay type: cell-based; settings: COLO357, 72 h
[6] = Binding affinity to zinc assessed as dissociation constant for compound-metal complex
[7] = target: Beta-lactamase VIM-2 (Pseudomonas aeruginosa) (UniProt Q9K2N0); assay: Inhibition of beta-lactamase VIM-2 in Pseudomonas aeruginosa assessed as potentiation of meropenem-induced antibacterial activity by measuring meropenem MIC at 50 uM after 20 hrs by broth microdilution assay (meropenem alone = 32 to 64 mg/L)
[8] = target: Metallo-beta-lactamase type 2 (Klebsiella pneumoniae) (UniProt C7C422); assay: Inhibition of NDM1 in Pseudomonas aeruginosa assessed as potentiation of meropenem-induced antibacterial activity by measuring meropenem MIC at 50 uM after 20 hrs by broth microdilution assay (meropenem alone = 32 to 64 mg/L)
[9] = target: Beta-lactamase VIM-2 (Pseudomonas aeruginosa) (UniProt Q9K2N0); assay: Inhibition of beta-lactamase VIM-2 in Pseudomonas aeruginosa assessed as potentiation of meropenem-induced antibacterial activity by measuring meropenem MIC at 31 uM after 20 hrs by broth microdilution assay (meropenem alone = 32 to 64 mg/L)
[10] = target: Beta-lactamase VIM-2 (Pseudomonas aeruginosa) (UniProt Q9K2N0); assay: Inhibition of beta-lactamase VIM-2 in Pseudomonas aeruginosa assessed as potentiation of meropenem-induced antibacterial activity by measuring meropenem MIC at 16 uM after 20 hrs by broth microdilution assay (meropenem alone = 32 to 64 mg/L)
[11] = target: Metallo-beta-lactamase type 2 (Klebsiella pneumoniae) (UniProt C7C422); assay: Inhibition of NDM1 in Pseudomonas aeruginosa assessed as potentiation of meropenem-induced antibacterial activity by measuring meropenem MIC at 31 uM after 20 hrs by broth microdilution assay (meropenem alone = 32 to 64 mg/L)
[12] = target: Metallo-beta-lactamase type 2 (Klebsiella pneumoniae) (UniProt C7C422); assay: Inhibition of NDM1 in Pseudomonas aeruginosa assessed as potentiation of meropenem-induced antibacterial activity by measuring meropenem MIC at 16 uM after 20 hrs by broth microdilution assay (meropenem alone = 32 to 64 mg/L)
[13] = test system: HepG2; assay: Cytotoxicity against human HepG2 cells after 72 hrs by MTT assay; assay type: cell-based; settings: HepG2, 72 h

Compound | MIC [1] | MIC [2] | IC50 [3] | IC50 [4] | IC50 [5] | pKd [6] | MIC [7] | MIC [8] | MIC [9] | MIC [10] | MIC [11] | MIC [12] | IC50 [13]
COC(=O)[C@@H](C)NC(=O)[C@@H](C)NC(=O)CN(Cc1ccccn1)Cc1ccccn1 | 16 µg/mL | 8 to 16 µg/mL | 184 µM | 98 µM | 90 µM | 7.6 |  |  |  |  |  |  | 
COC(=O)[C@@H](C)NC(=O)[C@@H](C)NC(=O)CCC(=O)NCCc1ccc(NC(=O)CN(Cc2ccccn2)Cc2ccccn2)cc1 | 32 µg/mL | 8 to 16 µg/mL | 141 µM | 45 µM | 152 µM | 7.6 |  |  |  |  |  |  | 
NCC(=O)NCC(=O)NCCc1ccc(-n2cc(CN(Cc3ccccn3)Cc3ccccn3)nn2)cc1 |  |  |  |  |  |  | 8 µg/mL | 4 µg/mL |  |  |  |  | 
C[C@@H](N)C(=O)N[C@H](C)C(=O)NCCc1ccc(NC(=O)CN(Cc2ccccn2)Cc2ccccn2)cc1.Cl | 16 µg/mL | 8 µg/mL | 127 µM | 118 µM | 21 µM | 7.6 |  |  |  |  |  |  | 
c1ccc(CNCCN(Cc2ccccn2)Cc2ccccn2)nc1 | 0.5 µg/mL | < 0.25 µg/mL |  |  |  |  |  |  | 1 µg/mL | 32 µg/mL | 0.125 µg/mL | 8 µg/mL | 
COC(=O)CNC(=O)CNC(=O)Cn1cc(CN(Cc2ccccn2)Cc2ccccn2)nn1 | 4 µg/mL | 2 µg/mL | 168 µM | 176 µM | 137 µM | 8.9 |  |  |  |  |  |  | 
COC(=O)[C@@H](C)NC(=O)[C@@H](C)NC(=O)Cc1ccc(-n2cc(CN(Cc3ccccn3)Cc3ccccn3)nn2)cc1 |  |  | 125 µM | 119 µM | 105 µM | 8.9 | 8 µg/mL | 4 µg/mL |  |  |  |  | 
COC(=O)[C@@H](CCCCn1cc(CN(Cc2ccccn2)Cc2ccccn2)nn1)NC(=O)[C@@H](C)NC(C)=O | 4 µg/mL | 1 µg/mL | 131 µM | 128 µM | 101 µM | 8.9 |  |  |  |  |  |  | 
COC(=O)CNC(=O)[C@H](CCCCNC(=O)Cn1cc(CN(Cc2ccccn2)Cc2ccccn2)nn1)NC(C)=O |  |  |  |  |  |  | 16 µg/mL | 4 µg/mL |  |  |  |  | 
COC(=O)[C@@H](C)NC(=O)[C@@H](C)NC(=O)Cc1ccc(NC(=O)CN(CCN(Cc2ccccn2)Cc2ccccn2)Cc2ccccn2)cc1 | 1 µg/mL | 0.125 µg/mL | 4.1 µM | 5.9 µM | 5.4 µM | 12.3 |  |  | 4 µg/mL | 32 µg/mL | 0.125 µg/mL | 16 µg/mL | 
COC(=O)CNC(=O)[C@H](CCCCNC(C)=O)NC(=O)Cn1cc(CN(Cc2ccccn2)Cc2ccccn2)nn1 |  |  |  |  |  |  | 32 µg/mL | 8 µg/mL |  |  |  |  | 
CCOC(=O)Cc1ccc(-n2cc(CN(Cc3ccccn3)Cc3ccccn3)nn2)cc1 |  |  |  |  |  |  | 16 µg/mL | 4 µg/mL |  |  |  |  | 
COC(=O)[C@@H](CCCCNC(=O)Cn1cc(CN(Cc2ccccn2)Cc2ccccn2)nn1)NC(=O)[C@@H](C)N |  |  | 127 µM | 106 µM | 114 µM | 8.9 |  |  |  |  |  |  | 
COC(=O)CNC(=O)CNC(=O)Cc1ccc(NC(=O)CN(CCN(Cc2ccccn2)Cc2ccccn2)Cc2ccccn2)cc1 | 1 µg/mL | 0.125 µg/mL | 7.8 µM | 12 µM | 12 µM | 12.3 |  |  | 2 µg/mL | 32 µg/mL | 2 µg/mL | 16 µg/mL | 
COC(=O)[C@@H](C)NC(=O)[C@@H](C)NC(=O)Cn1cc(CN(Cc2ccccn2)Cc2ccccn2)nn1 | 2 µg/mL | < 0.5 µg/mL | 152 µM | 116 µM | 133 µM | 8.9 |  |  | 64 µg/mL | 32 µg/mL | 16 µg/mL | 32 µg/mL | 
C[C@H](N)C(=O)N[C@@H](C)C(=O)NCCc1ccc(NC(=O)CN(CCN(Cc2ccccn2)Cc2ccccn2)Cc2ccccn2)cc1.Cl | 2 µg/mL | 0.125 µg/mL | 5.1 µM | 5.5 µM | 6.8 µM | 12.3 |  |  | 4 µg/mL | 32 µg/mL | 0.125 µg/mL | 16 µg/mL | 
C[C@@H](N)C(=O)N[C@H](C)C(=O)NCCc1ccc(-n2cc(CN(Cc3ccccn3)Cc3ccccn3)nn2)cc1 |  |  |  |  |  |  | 4 µg/mL | 4 µg/mL |  |  |  |  | 
COC(=O)CNC(=O)CNC(=O)Cc1ccc(-n2cc(CN(Cc3ccccn3)Cc3ccccn3)nn2)cc1 |  |  |  |  |  |  | 8 µg/mL | 4 µg/mL |  |  |  |  | 
COC(=O)[C@@H](C)NC(=O)[C@H](CCCCNC(=O)Cn1cc(CN(Cc2ccccn2)Cc2ccccn2)nn1)NC(C)=O |  |  |  |  |  |  | 16 µg/mL | 8 µg/mL |  |  |  |  | 
CC(=O)N[C@@H](CCCCNC(=O)Cn1cc(CN(Cc2ccccn2)Cc2ccccn2)nn1)C(=O)NCB(O)O | 2 µg/mL | 0.5 µg/mL | 128 µM | 119 µM | 82 µM | 8.9 |  |  | 32 µg/mL | 32 µg/mL | 8 µg/mL | 16 µg/mL | 
OC1O[C@H](Cn2cc(CN(CCN(Cc3ccccn3)Cc3ccccn3)Cc3ccccn3)nn2)[C@H](O)[C@H](O)[C@H]1O (some centres not stated) |  |  |  |  |  |  |  |  | 2 µg/mL | 32 µg/mL | 0.125 µg/mL | 8 µg/mL | 1.7 µM
CN(CCN(Cc1ccccn1)Cc1ccccn1)CC(=O)N(C)C[C@H](O)[C@@H](O)[C@H](O)[C@H](O)CO |  |  |  |  |  |  |  |  | 1 µg/mL | 32 µg/mL | 0.25 µg/mL | 32 µg/mL | 118 µM
CC(=O)NCCCC[C@H](NC(=O)Cn1cc(CN(Cc2ccccn2)Cc2ccccn2)nn1)C(=O)NCB(O)O | 2 µg/mL | 0.5 µg/mL | 101 µM | 66 µM | 112 µM | 8.9 |  |  | 16 µg/mL | 32 µg/mL | 8 µg/mL | 16 µg/mL | 
COC(=O)[C@@H](C)NC(=O)[C@H](CCCCNC(C)=O)NC(=O)Cn1cc(CN(Cc2ccccn2)Cc2ccccn2)nn1 |  |  |  |  |  |  | 32 µg/mL | 8 µg/mL |  |  |  |  | 
COC(=O)[C@H](C)NC(=O)[C@H](C)NC(=O)Cc1ccc(NC(=O)CN(CCN(Cc2ccccn2)Cc2ccccn2)Cc2ccccn2)cc1 | 1 µg/mL | 0.125 µg/mL |  |  |  |  |  |  | 1 µg/mL | 32 µg/mL | 0.125 µg/mL | 8 µg/mL | 
COC(=O)[C@H](C)NC(=O)[C@H](C)NC(=O)Cn1cc(CN(Cc2ccccn2)Cc2ccccn2)nn1 | 8 µg/mL | 2 µg/mL | 157 µM | 105 µM | 96 µM | 8.9 |  |  | 16 µg/mL | 32 µg/mL | 8 µg/mL | 16 µg/mL | 
Cl.NCC(=O)NCC(=O)NCCc1ccc(NC(=O)CN(CCN(Cc2ccccn2)Cc2ccccn2)Cc2ccccn2)cc1 |  |  | 15 µM | 21 µM | 24 µM | 12.3 |  |  |  |  |  |  | 
